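Following 48 hours of exposure in 96-well plates, responses at five concentrations were used to interpolate endpoints linearly. GI50 marks 50% less growth. TGI denotes the concentration required for complete inhibition of growth.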
Assays:
Test in all cases: DTP human tumour cell line panel, 48 h
UACC-257 melanoma = tested on: UACC-257 melanoma
KM12 colon = tested on: KM12 colon
COLO 205 colon = tested on: COLO 205 colon
SF-295 CNS = tested on: SF-295 CNS
UACC-62 melanoma = tested on: UACC-62 melanoma
CAKI-1 renal = tested on: CAKI-1 renal
SNB-75 CNS = tested on: SNB-75 CNS
OVCAR-4 ovarian = tested on: OVCAR-4 ovarian
OVCAR-5 ovarian = tested on: OVCAR-5 ovarian
MOLT-4 leukemia = tested on: MOLT-4 leukemia

## O=C1c2ccccc2-c2c1c1c(O)cccc1n2CCCc1ccccc1
UACC-257 melanoma
  GI50: 19.7 µM
  TGI: 50.8 µM
KM12 colon
  GI50: 4.54 µM
  TGI: > 100 µM
COLO 205 colon
  GI50: 17.8 µM
  TGI: > 100 µM
SF-295 CNS
  GI50: 7.33 µM
  TGI: > 100 µM
UACC-62 melanoma
  GI50: 22.7 µM
  TGI: > 100 µM
CAKI-1 renal
  GI50: 24.9 µM
  TGI: > 100 µM
SNB-75 CNS
  GI50: 51.7 µM
  TGI: > 100 µM
OVCAR-4 ovarian
  GI50: 87.7 µM
  TGI: > 100 µM
OVCAR-5 ovarian
  GI50: 64 µM
  TGI: > 100 µM
MOLT-4 leukemia
  GI50: 30.4 µM
  TGI: > 100 µM

## O=C(O)CN(CC(=O)O)c1ccccc1
UACC-257 melanoma
  TGI: > 100 µM
KM12 colon
  TGI: > 100 µM
COLO 205 colon
  TGI: > 100 µM
SF-295 CNS
  TGI: > 100 µM
UACC-62 melanoma
  TGI: > 100 µM
CAKI-1 renal
  TGI: > 100 µM
SNB-75 CNS
  TGI: > 100 µM
OVCAR-4 ovarian
  TGI: > 100 µM
OVCAR-5 ovarian
  TGI: > 100 µM
MOLT-4 leukemia
  TGI: > 100 µM

## CC(=O)n1cc(CC(C)O)c(=O)[nH]c1=O (stereo not given)
UACC-257 melanoma
  TGI: > 100 µM
KM12 colon
  TGI: > 100 µM
COLO 205 colon
  TGI: > 100 µM
SF-295 CNS
  TGI: > 100 µM
UACC-62 melanoma
  TGI: > 100 µM
CAKI-1 renal
  TGI: > 100 µM
SNB-75 CNS
  TGI: > 100 µM
OVCAR-4 ovarian
  TGI: > 100 µM
OVCAR-5 ovarian
  TGI: > 100 µM
MOLT-4 leukemia
  TGI: > 100 µM

## Cc1ccc(NC(C(=O)c2ccccc2)c2ccccc2)cc1 (stereo not given)
UACC-257 melanoma
  GI50: 2.8 µM
  TGI: 8.42 µM
KM12 colon
  GI50: 2.59 µM
  TGI: 13.4 µM
COLO 205 colon
  GI50: 3.02 µM
  TGI: 13.7 µM
SF-295 CNS
  GI50: 2.38 µM
  TGI: 8.71 µM
UACC-62 melanoma
  GI50: 3.93 µM
  TGI: > 100 µM
CAKI-1 renal
  GI50: 10.6 µM
  TGI: 39.7 µM
SNB-75 CNS
  GI50: 3.58 µM
  TGI: 20.3 µM
OVCAR-4 ovarian
  GI50: 3.93 µM
  TGI: > 100 µM
OVCAR-5 ovarian
  GI50: 21.6 µM
  TGI: > 100 µM
MOLT-4 leukemia
  GI50: 4.71 µM
  TGI: > 100 µM

## NC(Cc1ccc(O)cc1)C(=O)N/N=C/c1ccc(N(CCCl)CCCl)cc1 (stereo not given)
UACC-257 melanoma
  GI50: 15.6 µM
  TGI: 98.5 µM
KM12 colon
  GI50: 24.6 µM
  TGI: > 100 µM
COLO 205 colon
  GI50: 44.5 µM
  TGI: > 100 µM
SF-295 CNS
  GI50: 1.37 µM
  TGI: 6.35 µM
UACC-62 melanoma
  GI50: 2.69 µM
  TGI: 27 µM
CAKI-1 renal
  GI50: 1.83 µM
  TGI: 18.4 µM
SNB-75 CNS
  GI50: 12.6 µM
  TGI: > 100 µM
OVCAR-4 ovarian
  GI50: 28.4 µM
  TGI: > 100 µM
OVCAR-5 ovarian
  GI50: 27.4 µM
  TGI: > 100 µM
MOLT-4 leukemia
  GI50: 0.454 µM
  TGI: > 100 µM

## CC(C)(C)c1cc(Oc2ccc(C#N)c(C#N)c2)cc(C(C)(C)C)c1
UACC-257 melanoma
  TGI: > 100 µM
KM12 colon
  TGI: > 100 µM
COLO 205 colon
  TGI: > 100 µM
SF-295 CNS
  TGI: > 100 µM
UACC-62 melanoma
  TGI: > 100 µM
CAKI-1 renal
  TGI: > 100 µM
SNB-75 CNS
  TGI: > 100 µM
OVCAR-4 ovarian
  TGI: > 100 µM
OVCAR-5 ovarian
  TGI: > 100 µM
MOLT-4 leukemia
  TGI: > 100 µM

## COc1cccc(C(C#N)NC23CC4CC(CC(C4)C2)C3)c1 (stereo not given)
UACC-257 melanoma
  TGI: > 100 µM
KM12 colon
  TGI: > 100 µM
COLO 205 colon
  TGI: > 100 µM
SF-295 CNS
  TGI: > 100 µM
UACC-62 melanoma
  TGI: > 100 µM
CAKI-1 renal
  TGI: > 100 µM
SNB-75 CNS
  TGI: > 100 µM
OVCAR-4 ovarian
  TGI: > 100 µM
OVCAR-5 ovarian
  TGI: > 100 µM
MOLT-4 leukemia
  TGI: > 100 µM

## Nc1ncnc2c1nc(N)n2C1OC(CO)C(O)C1O (stereo not given)
UACC-257 melanoma
  GI50: 0.229 µM
  TGI: 0.857 µM
KM12 colon
  GI50: 0.266 µM
  TGI: 0.867 µM
COLO 205 colon
  GI50: 0.142 µM
  TGI: 1.16 µM
SF-295 CNS
  GI50: 1.78 µM
  TGI: 6.09 µM
UACC-62 melanoma
  GI50: 0.251 µM
  TGI: 1.2 µM
CAKI-1 renal
  GI50: 0.318 µM
  TGI: 1.59 µM
SNB-75 CNS
  GI50: 1.88 µM
  TGI: 3.7 µM
OVCAR-4 ovarian
  GI50: 1.42 µM
  TGI: 7.16 µM
OVCAR-5 ovarian
  GI50: 0.221 µM
  TGI: 15.4 µM
MOLT-4 leukemia
  GI50: 1.76 µM
  TGI: > 24.4 µM

## C/C(=C\CCc1ccsc1)CC/C=C(\C)CCCN1CCN(CCO)CC1
UACC-257 melanoma
  GI50: 4.57 µM
  TGI: 16 µM
KM12 colon
  GI50: 2.38 µM
  TGI: 5.66 µM
COLO 205 colon
  GI50: 1.89 µM
  TGI: 3.95 µM
SF-295 CNS
  GI50: 2.29 µM
  TGI: 5.64 µM
UACC-62 melanoma
  GI50: 1.73 µM
  TGI: 3.75 µM
CAKI-1 renal
  GI50: 4.26 µM
  TGI: 16.4 µM
SNB-75 CNS
  GI50: 2.45 µM
  TGI: 8.51 µM
OVCAR-4 ovarian
  GI50: 2.7 µM
  TGI: 14.7 µM
OVCAR-5 ovarian
  GI50: 4.04 µM
  TGI: 17.6 µM
MOLT-4 leukemia
  GI50: 2.48 µM
  TGI: 6.29 µM

## COc1cc(-c2ccc(Nc3ccccc3C(=O)O)c(OC)c2)ccc1Nc1ccccc1C(=O)O
UACC-257 melanoma
  TGI: > 100 µM
KM12 colon
  TGI: > 70.9 µM
COLO 205 colon
  TGI: > 100 µM
SF-295 CNS
  TGI: > 100 µM
UACC-62 melanoma
  TGI: 35.6 µM
CAKI-1 renal
  TGI: > 71.1 µM
SNB-75 CNS
  TGI: 91.3 µM
OVCAR-4 ovarian
  TGI: > 100 µM
OVCAR-5 ovarian
  TGI: > 87.5 µM
MOLT-4 leukemia
  TGI: > 100 µM

## COc1ccccc1N(C(C)=O)C1=C(Cl)C(=O)c2ccccc2C1=O
UACC-257 melanoma
  GI50: 2.14 µM
  TGI: 4.39 µM
KM12 colon
  GI50: 1.06 µM
  TGI: 5.48 µM
COLO 205 colon
  GI50: 1.51 µM
  TGI: 2.84 µM
SF-295 CNS
  GI50: 2.38 µM
  TGI: 6.5 µM
UACC-62 melanoma
  GI50: 0.502 µM
  TGI: 2.92 µM
CAKI-1 renal
  GI50: 1.45 µM
  TGI: 3.3 µM
SNB-75 CNS
  GI50: 1.72 µM
  TGI: 7.6 µM
OVCAR-4 ovarian
  GI50: 0.875 µM
  TGI: 2.14 µM
OVCAR-5 ovarian
  GI50: 2.93 µM
  TGI: 11.5 µM
MOLT-4 leukemia
  GI50: 2.94 µM
  TGI: > 25.1 µM

## NC(=O)c1ccccc1NC(=O)C(=O)Nc1n[nH]c(N)n1
UACC-257 melanoma
  TGI: > 100 µM
KM12 colon
  TGI: > 100 µM
COLO 205 colon
  TGI: > 100 µM
SF-295 CNS
  TGI: > 100 µM
UACC-62 melanoma
  TGI: > 100 µM
CAKI-1 renal
  TGI: > 100 µM
SNB-75 CNS
  TGI: > 100 µM
OVCAR-4 ovarian
  TGI: > 100 µM
OVCAR-5 ovarian
  TGI: > 100 µM
MOLT-4 leukemia
  TGI: > 100 µM

## O=C(NCCSSCCNC(=O)/C(Cc1ccc(O)c(Br)c1)=N/O)/C(Cc1ccc(O)c(Br)c1)=N/O
UACC-257 melanoma
  TGI: > 34.6 µM
KM12 colon
  TGI: 10.5 µM
COLO 205 colon
  TGI: 6.82 µM
SF-295 CNS
  TGI: 4.29 µM
UACC-62 melanoma
  TGI: 7.32 µM
CAKI-1 renal
  TGI: 5.32 µM
SNB-75 CNS
  TGI: > 13.6 µM
OVCAR-4 ovarian
  TGI: 18.3 µM
OVCAR-5 ovarian
  TGI: 13.5 µM
MOLT-4 leukemia
  TGI: 8.58 µM

## Cc1ccc(-n2nnc3c(sc4ccccc43)c2=O)cc1
UACC-257 melanoma
  GI50: > 100 µM
  TGI: > 100 µM
KM12 colon
  GI50: 3.81 µM
  TGI: > 100 µM
COLO 205 colon
  GI50: 6.23 µM
  TGI: > 100 µM
SF-295 CNS
  GI50: 3.03 µM
  TGI: 14.5 µM
UACC-62 melanoma
  GI50: 51.7 µM
  TGI: > 100 µM
CAKI-1 renal
  GI50: 3.8 µM
  TGI: > 100 µM
SNB-75 CNS
  GI50: 3.08 µM
  TGI: 16.3 µM
OVCAR-4 ovarian
  GI50: 2.02 µM
  TGI: 4.82 µM
OVCAR-5 ovarian
  GI50: > 100 µM
  TGI: > 100 µM
MOLT-4 leukemia
  GI50: > 100 µM
  TGI: > 100 µM
